Where two headings read alike, the source gives them in different places.
Assays:
[1] = biological target: T1, ATM protein (Homo sapiens, UniProt Q13315); assay: ATM inhibition assay (immunoprecipitated ATM, GSTp53N66 substrate); format: biochemical
T1 construct: ATM protein was immunoprecipitated from HeLa cell nuclear extract; endogenous in cells; host or cells: HeLa cell nuclear extract (immunoprecipitate)
Description: (§1) In order to assess the inhibitory action of the compounds against ATM in vitro, the following assay was used to determine IC50 values.
(§2) ATM protein was immunoprecipitated from HeLa cell nuclear extract using rabbit polyclonal antisera raised to the C-terminal ˜500 amino-acid residues of the human ATM protein. The immunoprecipitation was performed according to the methodology described by Banin, S. et al. (1998) Enhanced phosphorylation of p53 by ATM in response to DNA damage. Science 281:1674-1677. 10 μl of immunoprecipitated ATM in Buffer C (50 mM Hepes, pH 7.4, 6 mM MgCl2, 150 mM NaCl, 0.1 mM sodium orthovanadate, 4 mM MnCl2, 0.1 mM dithiothreitol, 10% glycerol) was added to 32.5 μl of buffer C containing 1 μg of the ATM substrate GSTp53N66 in a V-bottomed 96 well polypropylene plate. The GSTp53N66 substrate is the amino terminal 66 amino acid residues of human wild type p53 fused to glutathione S-transferase. ATM phosphorylates p53 on the residue serine 15 (Banin, S. et al. (1998) Enhanced phosphorylation of p53 by ATM in response to DNA damage. Science 281:1674-1677). Varying concentrations of inhibitor were then added. […] After 10 minutes of incubation at 37° C., the reactions were initiated by the addition of 5 μl of 50 μM Na-ATP. After 1 h with shaking at 37° C., 150 μl of phosphate buffered saline (PBS) was added to the reaction and the plate centrifuged at 1500 rpm for 10 minutes. 5 μl of the reaction was then transferred to a 96 well opaque white plate containing 45 μl of PBS to allow the GSTp53N66 substrate to bind to the plate wells. The plate was covered and incubated at room temperature for 1 h with shaking before discarding the contents. The plate wells were washed twice by the addition of PBS prior to the addition of 3% (w/v) bovine serum albumin (BSA) in PBS. The plate was incubated at room temperature for 1 h with shaking before discarding the contents and washing twice with PBS. To the wells, 50 μl of a 1:10,000 dilution of primary phosphoserine-15 antibody (Cell Signaling Technology, #9284L) in 3% BSA/PBS was added to detect the phosphorylation event on the serine 15 residue of p53 elicited by the ATM kinase. After 1 h of incubation at room temperature with shaking, the wells were washed four times with PBS prior to the addition of an anti-rabbit HRP conjugated secondary antibody (Pierce, 31462) with shaking for 1 h at room temperature. The wells were then washed four times with PBS before the addition of chemiluminescence reagent (NEN Renaissance, NEL105). The plate was then shaken briefly, covered with a transparent plate seal and transferred to a TopCount NXT for chemiluminescent counting. Counts per second, following a one second counting time, were recorded for each reaction. The inhibition of ATM activity by compounds was calculated as described above for the DNA-PK assay.
(§3) The selectivity was determined by the following equation: […]

[2] = system: ATM protein; assay: as above; format: biochemical, human; details: selectivity ratio from the IC50s for ATM and DNA-PK
Description: as §1, §2, §3

[3] = biological target: T2, PI 3-kinase (p110α/p85α) (UniProt P32871); assay: PI 3-kinase inhibition assay; format: biochemical; details: GST-fused p110α/p85α
T2 construct: other: GST-fused p110α/p85α
Text: (§4) In order to assess the inhibitory action of the compounds against PI 3-kinase in vitro, the following assay was used to determine IC50 values.
(§5) Baculoviral recombinant GST-fused PI 3-kinase (p110α/p85α) was purified from Sf9 insect cells using GSH-sepharose affinity chromatography as described (Wymann, M. T et al., (1996) Wortmannin inactivates phosphoinositide 3-kinase by covalent modification of Lys-802, a residue involved in the phosphate transfer reaction. Mol. Cell Biol. 16:1722-1733). PI 3-kinase (1 μl) was diluted in reaction buffer (89 μl of 50 mM Hepes pH 7.5, 150 mM NaCl, 0.1 mM Sodium Orthovanadate, containing 20 μg of phosphatidylinositol) and varying concentrations of inhibitor compound added. […] Reactions were incubated for a further 20 minutes at 37° C., before quenching with the addition of 400 μl of chloroform/methanol (1:1). Reactions were acidified by the addition of 200 μl of 1M HCl, before separation of the organic and aqueous phases by centrifugation at 10,000 g for 30 seconds. The organic phase was transferred to a fresh tube and washed twice with 150 μl of 1M hydrochloric acid/methanol (1:1), discarding the aqueous phase. The washed reaction product was then placed in a white 96-well plate with 100 μl of scintillation fluid and transferred to a TopCount NXT for scintillation counting. Counts per minute, following a one minute counting time, were recorded for each reaction. The inhibition of PI 3-kinase activity by compounds was calculated as described above for the DNA-PK assay.
as §3

[4] = system: PI 3-kinase (p110α/p85α); assay: PI 3-kinase inhibition assay; format: biochemical; details: selectivity ratio from the IC50s for PI 3-kinase and DNA-PK
Text: as §4, §5, §3

[5] = biological target: T3, Mammalian DNA-PK, isolated from Hela cell nuclear extract (Homo sapiens, UniProt P78527); assay: DNA-PK inhibition assay (33P-ATP, filter binding); format: biochemical
T3 construct: Mammalian DNA-PK, isolated from Hela cell nuclear extract; endogenous in cells; host or cells: HeLa cell nuclear extract (purified per Gell and Jackson 1999)
Method in brief: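 DNA-PK from HeLa nuclear extract preincubated with compound 10 min at 30 °C, then started with 50 μM Na-ATP final, ^33P-γATP and 30mer dsDNA (10 ng/μl), run 45 min at 30 °C.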

[6] = IC50 of less than about 1 μM and/or % inhibition of more than about 50 at 1 μM, read-out: DNA-PK inhibition IC50 (particular efficacy)
[7] = concentration at which 50% of the enzyme activity is inhibited, read-out: DNA-PK Inhibition IC50

T1 sequence (Q13315 whole entry): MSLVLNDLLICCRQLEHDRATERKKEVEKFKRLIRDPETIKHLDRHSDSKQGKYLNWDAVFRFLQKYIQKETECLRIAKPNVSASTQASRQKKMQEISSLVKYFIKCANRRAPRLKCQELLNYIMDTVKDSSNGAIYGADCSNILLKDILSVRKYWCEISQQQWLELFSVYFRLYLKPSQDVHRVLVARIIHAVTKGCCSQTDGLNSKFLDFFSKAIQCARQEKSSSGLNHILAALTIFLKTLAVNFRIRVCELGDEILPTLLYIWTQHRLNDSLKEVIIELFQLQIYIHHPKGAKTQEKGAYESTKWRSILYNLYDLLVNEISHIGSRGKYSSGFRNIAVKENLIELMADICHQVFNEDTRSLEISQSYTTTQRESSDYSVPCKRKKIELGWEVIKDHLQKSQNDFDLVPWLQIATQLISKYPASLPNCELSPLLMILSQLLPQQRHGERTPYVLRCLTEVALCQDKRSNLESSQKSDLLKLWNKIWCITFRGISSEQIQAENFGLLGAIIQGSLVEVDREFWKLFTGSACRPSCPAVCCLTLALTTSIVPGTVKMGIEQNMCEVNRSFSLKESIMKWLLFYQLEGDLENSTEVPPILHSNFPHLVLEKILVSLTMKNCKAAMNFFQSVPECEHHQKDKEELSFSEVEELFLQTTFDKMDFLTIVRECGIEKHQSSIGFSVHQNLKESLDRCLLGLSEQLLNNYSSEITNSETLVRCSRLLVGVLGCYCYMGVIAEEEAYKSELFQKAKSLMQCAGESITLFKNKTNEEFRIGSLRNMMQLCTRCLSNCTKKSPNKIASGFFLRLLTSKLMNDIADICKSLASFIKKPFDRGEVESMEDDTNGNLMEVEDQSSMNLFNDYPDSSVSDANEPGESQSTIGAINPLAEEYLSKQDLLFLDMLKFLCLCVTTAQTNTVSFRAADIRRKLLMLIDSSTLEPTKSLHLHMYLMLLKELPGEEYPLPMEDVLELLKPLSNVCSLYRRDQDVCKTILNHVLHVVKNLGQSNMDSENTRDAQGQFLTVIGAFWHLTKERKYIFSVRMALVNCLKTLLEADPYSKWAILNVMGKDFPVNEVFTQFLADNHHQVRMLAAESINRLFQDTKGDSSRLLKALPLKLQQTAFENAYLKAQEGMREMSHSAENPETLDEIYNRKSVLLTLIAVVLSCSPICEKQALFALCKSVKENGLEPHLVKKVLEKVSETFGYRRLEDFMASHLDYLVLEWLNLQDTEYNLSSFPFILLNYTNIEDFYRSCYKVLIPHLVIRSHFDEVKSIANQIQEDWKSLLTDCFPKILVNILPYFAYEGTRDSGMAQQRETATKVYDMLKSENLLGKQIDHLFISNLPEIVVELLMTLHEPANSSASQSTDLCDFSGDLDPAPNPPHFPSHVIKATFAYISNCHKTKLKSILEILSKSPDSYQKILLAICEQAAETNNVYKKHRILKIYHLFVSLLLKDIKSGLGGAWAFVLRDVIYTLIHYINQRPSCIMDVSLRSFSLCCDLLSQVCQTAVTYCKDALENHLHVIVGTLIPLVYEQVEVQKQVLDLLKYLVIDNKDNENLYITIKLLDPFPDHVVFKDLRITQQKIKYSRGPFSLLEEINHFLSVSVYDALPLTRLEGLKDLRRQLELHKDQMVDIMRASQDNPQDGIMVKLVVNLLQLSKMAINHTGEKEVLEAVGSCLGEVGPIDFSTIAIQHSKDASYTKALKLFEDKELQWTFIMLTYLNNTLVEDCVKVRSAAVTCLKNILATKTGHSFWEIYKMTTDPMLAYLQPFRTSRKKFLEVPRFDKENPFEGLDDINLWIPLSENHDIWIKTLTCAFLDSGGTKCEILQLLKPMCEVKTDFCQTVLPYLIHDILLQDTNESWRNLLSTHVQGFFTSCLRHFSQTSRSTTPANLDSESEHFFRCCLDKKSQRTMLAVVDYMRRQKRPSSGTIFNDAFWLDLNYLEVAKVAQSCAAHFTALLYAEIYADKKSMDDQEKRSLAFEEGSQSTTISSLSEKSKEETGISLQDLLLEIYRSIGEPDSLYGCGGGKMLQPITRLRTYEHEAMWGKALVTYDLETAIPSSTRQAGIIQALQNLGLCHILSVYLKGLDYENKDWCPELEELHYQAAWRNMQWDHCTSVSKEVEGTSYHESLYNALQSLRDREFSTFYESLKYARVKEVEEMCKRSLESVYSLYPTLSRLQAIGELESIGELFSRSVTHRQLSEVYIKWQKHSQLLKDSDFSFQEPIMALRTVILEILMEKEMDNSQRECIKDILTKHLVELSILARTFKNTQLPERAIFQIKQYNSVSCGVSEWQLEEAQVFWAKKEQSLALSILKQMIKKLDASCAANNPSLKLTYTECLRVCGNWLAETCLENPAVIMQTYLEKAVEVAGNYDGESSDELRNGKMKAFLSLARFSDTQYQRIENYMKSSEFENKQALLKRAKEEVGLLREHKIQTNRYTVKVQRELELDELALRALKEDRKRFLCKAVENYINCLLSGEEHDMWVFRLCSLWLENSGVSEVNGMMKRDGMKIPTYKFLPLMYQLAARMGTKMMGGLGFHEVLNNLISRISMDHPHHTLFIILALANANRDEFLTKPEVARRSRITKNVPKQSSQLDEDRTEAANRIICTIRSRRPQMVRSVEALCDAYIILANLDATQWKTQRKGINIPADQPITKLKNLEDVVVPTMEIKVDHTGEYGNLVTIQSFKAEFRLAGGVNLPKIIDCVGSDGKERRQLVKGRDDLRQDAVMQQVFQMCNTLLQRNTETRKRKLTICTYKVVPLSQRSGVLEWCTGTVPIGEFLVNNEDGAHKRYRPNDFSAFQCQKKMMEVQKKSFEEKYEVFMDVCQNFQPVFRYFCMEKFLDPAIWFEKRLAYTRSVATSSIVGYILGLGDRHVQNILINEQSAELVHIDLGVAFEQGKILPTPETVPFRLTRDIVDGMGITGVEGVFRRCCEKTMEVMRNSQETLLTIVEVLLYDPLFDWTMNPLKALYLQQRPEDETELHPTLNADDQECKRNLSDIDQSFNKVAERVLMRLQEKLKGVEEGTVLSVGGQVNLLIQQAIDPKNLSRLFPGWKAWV

SMILES | IC50 [1] [nM] | Δ(DNA-PK/ATM) [2] | IC50 [3] [nM] | Δ(DNA-PK/PI 3-K) [4] | IC50 [5, 6] [nM] | IC50 [5, 7] [nM]
CC1CN(c2cc(=O)c3ccc4ccccc4c3o2)CCO1 (stereo not drawn) [Compound 317, 2-(2-Methyl-morpholin-4-yl)-benzo[h]chromen-4-one] | > 100000 | >333 | 2500 | 8 | < 1000 | 300
O=C1c2ccccc2C(=O)N1CCCOc1ccc2c(=O)cc(N3CCOCC3)oc2c1 [Compound 422, N-[3-(2-(Morpholin-4-yl)-4-oxo-4H-chromen-7-yloxy)-propyl]-phthalimide] | > 100000 | >200 | 6000 | 12 | < 1000 | 500
O=c1cc(N2CCOCC2)oc2c3c(ccc12)CCCC3 [Compound 297, 7,8,9,10-tetrahydro-benzo[h]-2-(morpholin-4-yl)-chromen-4-one] | 45000 | 90 | 18000 | 36 | < 1000 | 500

From US7674823B2, “DNA-PK inhibitors” (Cancer Research Technology Limited, priority 2001, dated 2010)
